Experimental data taken from patent publication US20250115596A1, “ESTERS OF 8-METHYL-8-AZABICYCLO[3.2.1] OCTAN-3-YL 3-HYDROXY-2-PHENYLPROPANOATE” (ADS Therapeutics LLC, priority 2022, published 2025).
Values after ≈ are worked out from the molar mass of the structure shown. Structures can show the parent of a compound that is named as a salt.

Assays:
Dutch Belted rabbits = experiment: In vivo pharmacology study: pupil size after topical ocular instillation of eye drop formulation; details: for pupil size change from baseline: female Dutch Belted rabbits; for retention of pupil dilation during the measurement period: measured up to 24 hour after dosing
Experimental: The test compound was administered to each animal by topical ocular instillation of 40 μL of eye drop formulation just once at day 1. The pupil size of both eyes of all animals were measured at baseline (30 minutes before dosing), 0.5 hour, 1 hour, 2 hour, 4 hour, 6 hour, 8 hour, 12 hour, and 24 hour after dosing. Pupil sizes were measured in both eyes of all animals on 3 separate days during acclimation prior to dosing initiation. Set the light intensity in the procedure room so that the animal's pupil size was about 6-7 mm. Light intensity of the procedure room for pupil size measurement should be maintained constant throughout the pupil size measurement procedures in the study. Pupil size change from baseline was calculated for each eye of each individual animal separately for each postdose timepoint. Mean and standard error of pupil size change from baseline were calculated for each group per postdose timepoint and plotted mean of pupil change from baseline against timepoint comparisons.

physchem = details: organic solvent or mixture, thermodynamic from solid
[1] = 0.4% formulation in F6H8, single 40 μL eye drop

CN1[C@@H]2CC[C@H]1C[C@@H](OC(=O)C(CO)c1ccccc1)C2 (some centres unmarked) [atropine sulfate monohydrate, reference compound]
pupil size change from baseline (Dutch Belted rabbits; 0.01% in normal saline, single 40 μL eye drop, 1 hour or 2 hour post-dose): about 5%

CCCCC/C=C\C/C=C\CCCCCCCC(=O)OCC(C(=O)O[C@H]1C[C@H]2CC[C@@H](C1)N2C)c1ccccc1 (stereo partly drawn) [Compound 2, 3-(((1R,3r,5S)-8-methyl-8-azabicyclo[3.2.1]octan-3-yl)oxy)-3-oxo-2-phenylpropyl (9Z,12Z)-octadeca-9,12-dienoate]
solubility at 30 min (physchem): 3870 µg/mL (≈ 7.01 mM)
pupil size change from baseline (Dutch Belted rabbits; [1]): over 10%
retention of pupil dilation during the measurement period (Dutch Belted rabbits; [1]): remained significantly dilated from baseline during the measurement period

CC(C)CCC[C@@H](C)[C@H]1CC[C@H]2[C@@H]3CC=C4C[C@@H](O)CC[C@]4(C)[C@H]3CC[C@]12C [cholesterol, reference compound]
solubility at 30 min (physchem; perfluorohexyloctane (F6H8)): 79.7 µg/mL (≈ 0.206 mM)

CCCCCC=CCCC(=O)OCC(C(=O)O[C@H]1C[C@H]2CC[C@@H](C1)N2C)c1ccccc1 (some centres unmarked) [Compound 13, atropine dec-4-enoate]
solubility at 30 min (physchem): 4900 µg/mL (≈ 11.1 mM)

CCCCCCCC/C=C\CCCCCCCC(=O)OCC(C(=O)O[C@H]1C[C@H]2CC[C@@H](C1)N2C)c1ccccc1 (stereo partly drawn) [Compound 1, 3-(((1R,3r,5S)-8-methyl-8-azabicyclo[3.2.1]octan-3-yl)oxy)-3-oxo-2-phenylpropyl (9Z)-octadec-9-enoate]
solubility at 30 min (physchem): 5000 µg/mL (≈ 9.03 mM)
pupil size change from baseline (Dutch Belted rabbits; [1]): comparable pupil size dilation as the 0.01% atropine sulfate monohydrate
retention of pupil dilation during the measurement period (Dutch Belted rabbits; [1]): retained the pupil dilation throughout the measurement period

CCCCCCCCCCCCCCCC(=O)OCC(C(=O)O[C@H]1C[C@H]2CC[C@@H](C1)N2C)c1ccccc1 (some centres unmarked) [Compound 7, atropine palmitate]
solubility at 30 min (physchem): 5610 µg/mL (≈ 10.6 mM)

CCCCCCCCCCCCCCCCCC(=O)O[C@H]1CC[C@@]2(C)C(=CC[C@H]3[C@@H]4CC[C@H]([C@H](C)CCCC(C)C)[C@@]4(C)CC[C@@H]32)C1 [cholesteryl stearate, reference compound]
solubility at 30 min (physchem): 26.2 µg/mL (≈ 0.0402 mM)
